These results are taken from patent publication EP0778023B1, “Product comprising rapamycin or particular derivatives and an NMDA or AMPA antagonist for use for the treatment of epilepsy or Huntington's Disease, and the use of rapamycin or particular derivatives for the manufacture of a medicament for the treatment of epilepsy or Huntington's Disease” (Wyeth, priority 1995, dated 1997).

The subject of one test is Cortical neurons. Description: ischemia induced neurotoxicity in cortical cultures with NMDA and AMPA inhibitors, LDH activity. In kind it is cell-based, rat. To be noted: 1 week old cortical cell cultures. The protocol:
(§1) Briefly, rat hippocampal and cortical cultures were prepared according to the method of Furshpan and Potter with some modifications. [Neuron 3:199 (1989)]. Brains were removed from newborn Long Evans pups anesthetized with an injection of 0.1 ml of 20% chloral hydrate. The hippocampi were dissected out and separated from the rest of the cortex. Both tissues were enzymatically digested in 5 ml Earle's Balanced Salt Solution (EBSS) containing 20 u/ml papain, 1 mM L-cysteine, and 0.5 mM EDTA for 30 minutes at 37°C with gentle rocking. The hippocampi and cortical tissues were then washed once with EBSS and the digestion was stopped by incubating at 37°C for 30 minutes with 3-5 mis of inhibitor solution containing 1 mg/ml ovomucoid and 1 mg/ml albumin in EBSS. The digested hippocampi and cortical tissues were washed twice with DME without L-glutamine with 4.5 g/L dextrose before being triturated in 2 ml of DME supplemented with 5% fetal calf serum, 5% rat serum, 50 u/ml penicillin, 0.05 mg/ml streptomycin and MlTO+ serum extender [a medium supplement from Collaborative Biomedical Products] (10% DME). After 50 triturations, undissociated tissue was allowed to settle and the dissociated cell suspension was removed. A fresh 2 ml of 10% DME was added to the remaining tissue and the trituration was repeated. The two cell suspension aliquots were pooled and the cell density was determined with a hemacytometer.
(§2) 30,000 hippocampal cells in 150 µL were plated per well in 96-well plates and incubated at 37°C in 5% CO2. Cortical cells were plated at a density of 500,000 cells per well in 24-well plates. When glia cells were confluent (after approximately 3 days), 4-10 µM cytosine β-D-arabinofuranoside was added to each well to prevent further proliferation. One week after plating, the medium was removed and replaced with DME supplemented with 2.5% fetal calf serum, 2.5% rat serum, 50 u/ml penicillin, 0.05 mg/ml streptomycin, MITO+, 1 mM kynurenate and 10 mM MgCl2 (5% DME + KM). Kynurenate is a nonspecific blocker of glutamate receptors and elevated levels of magnesium block calcium and sodium influx through NMDA receptor channels. The addition of KM prevents neurotoxicity that occurs with glutamate found in serum, and allows neurons to be maintained in culture for up to several months. The cells were fed weekly by exchanging half the medium with fresh 5% DME + KM.
Cortical neurons were washed six times with DME without glucose that has been deoxygenated by bubbling the medium with 95% N2/5% CO2 for at least 10 minutes, to induce an ischemic state that will cause neuronal cell death that can be observed by measuring lactate dehydrogenase levels, as the amount of LDH activity in each well is directly correlated with the number of dead cells. 100 µM [2-(8,9-Dioxo-2,6-diazabicyclo[5.2.0]non-1(7)-en-2-yl)-ethyl]-phosphonic acid (disclosed in U.S. Patent 5,168,103 and 10 µM YM90K were added to certain wells to block NMDA and AMPA glutamate receptors, respectively. To test wells, 1 µM of the compound of Example 1 was added. Control wells were washed with normal DME with glucose and 100 µM [2-(8,9-dioxo-2,6-diazabicyclo[5.2.0]non-1(7)-en-2-yl)ethyl]phosphonic acid. 5 µL samples were taken from each well at different time points following ischemia and the LDH activity in those samples was determined by adding 250 µL of 2 mg NADH/25 mL phosphate buffer to each sample. After incubating for 20-30 minutes, 10 µL of 22.7 mM pyruvate was added and the optical density (OD) at 340 nm read. The change in optical density with time (mOD/min) reflects the amount of LDH in the sample. Higher optical density changes means more LDH activity indicating more cell death. Samples were taken from 4-8 wells per condition and the average and standard deviation for each condition and time point determined.

Test [1] concerns rat hippocampal and cortical cultures (hippocampal neurons). Description: glutamate induced toxicity in hippocampal cultures, count of live neurons. The test is classed as cell-based. To be noted: 30 µM glutamate. How it is done: as §1, §2
The compound to be evaluated was dissolved in DMSO to make 10 mM stock solutions and stored in aliquots at -80°C. Just before each procedure was carried out, aliquots of the stock solutions were thawed and diluted in DME or Hanks' Balanced Salt Solution (HBSS) containing 44 mM sodium bicarbonate, 10 mM glucose, and 30 µM glutamate to obtain test concentrations from 1 nM to 10 µM.
After 4-12 weeks in culture, hippocampal cells were washed three times and fed with test compound in HBSS, or serum free DME (SF DME) and 30 to 150 µM glutamate. At least three wells in every test procedure were treated with each drug concentration. 30 µM Glutamate kills 70-80% of the neurons in younger cultures, and more in older cultures. The toxicity induced by 30 µM glutamate was blocked by 1 mM kynurenate + 10 mM MgCl2 (KM).
Following overnight incubation at 37°C, the number of live hippocampal neurons remaining in five fields, representing the north, south, east, and west extremes and the center of each well, were counted. Each field was visualized through a 10x objective with a 15x eyepiece and was approximately 1.54 mm^2 in area. Conditions were generally done in triplicate. The mean number of neurons per well and the standard deviation for each condition were calculated. The mean number of neurons remaining in the control 30 µM glutamate condition reflects those that were not sensitive to glutamate toxicity.

[2] abbreviates: Time 8 hours, test compound administered with the NMDA and AMPA inhibitors.
Where [3] appears, read: Time 13 hours, with the NMDA and AMPA inhibitors.
Setting [4] is: Time 24 hours, with the NMDA and AMPA inhibitors.
[5] abbreviates: Time 30 hours, with the NMDA and AMPA inhibitors.
The mark [6] stands for this setting: 2 nM test compound, HBSS, overnight incubation.
Where [7] appears, read: 20 nM test compound, HBSS, overnight incubation.
Setting [8] is: 200 nM test compound, HBSS, overnight incubation.

Take `CO[C@H]1C[C@@H]2CC[C@@H](C)[C@@](O)(O2)C(=O)C(=O)N2CCCC[C@H]2C(=O)O[C@H]([C@H](C)C[C@@H]2CC[C@@H](OS(=O)(=O)c3ccc(N=Nc4ccc(N(C)C)cc4)cc3)[C@H](OC)C2)CC(=O)[C@H](C)/C=C(\C)[C@@H](O)[C@@H](OC)C(=O)[C@H](C)C[C@H](C)/C=C/C=C/C=C/1C` [Example 3, Rapamycin 42-ester with 4-[[4-(dimethylamino)phenyl]azo]benzenesulfonic acid]: the “LDH Activity” value in the test on Cortical neurons (setting [2]) is 0.84 mOD/min; in the test on Cortical neurons (setting [3]), 2.36 mOD/min; with Cortical neurons (setting [4]), 7.03 mOD/min; with Cortical neurons (setting [5]), 11.25 mOD/min. For the same molecule, the “No. Neurons Alive” value was 98 in test [1] (setting [6]), 285 in test [1] (setting [7]) and 241 in test [1] (setting [8]).

Take `O=C(O)c1cc(O)c2ccccc2n1` [Kynurenate, kynurenate, reference compound]: the “No. Neurons Alive” value in test [1] (1 mM, HBSS, overnight incubation (second table)) is 202; in test [1] (1 mM, SF DME, overnight incubation (first table)), 82.

Consider “Rapamycin 1,3-Diels Alder adduct with methyltriazolinedione [Example 4]”, for which the “LDH Activity” value came to 0.91 mOD/min in the test on Cortical neurons (setting [2]), 2.54 mOD/min in the test with Cortical neurons (setting [3]), 8.21 mOD/min in the test with Cortical neurons (setting [4]) and 13.31 mOD/min in the test with Cortical neurons (setting [5]). Moreover, the “No. Neurons Alive” value was determined as 117 in test [1] (setting [6]), 130 in test [1] (setting [7]) and 157 in test [1] (setting [8]).

Turning to “Rapamycin 1,3, Diels Alder adduct with Phenyltriazolinedione [Example 2]”, the “LDH Activity” value was 1.08 mOD/min with Cortical neurons (setting [2]), 2.31 mOD/min in the test with Cortical neurons (setting [3]), 7.69 mOD/min in the test on Cortical neurons (setting [4]) and 12.43 mOD/min in the test on Cortical neurons (setting [5]). Further, the “No. Neurons Alive” value in test [1] (setting [6]) was 110; in test [1] (setting [7]) it was 180; in test [1] (setting [8]), 127.

For the molecule `CO[C@H]1C[C@@H]2CC[C@@H](C)[C@@](O)(O2)C(=O)C(=O)N2CCCC[C@H]2C(=O)O[C@H]([C@H](C)C[C@@H]2CC[C@@H](O)[C@H](OC)C2)CC(=O)[C@H](C)/C=C(\C)[C@@H](O)[C@@H](OC)C(=O)[C@H](C)C[C@H](C)/C=C/C=C/C=C/1C` [Example 1, Rapamycin], the “LDH Activity” value in the test with Cortical neurons (setting [2]) worked out at 1.04 mOD/min; in the test on Cortical neurons (setting [3]) it was 3.08 mOD/min; in the test with Cortical neurons (setting [4]), 9.00 mOD/min; in the test on Cortical neurons (setting [5]), 14.02 mOD/min. Moreover, the “No. Neurons Alive” value in test [1] (setting [6]) stood at 63; in test [1] (10nM test compound, SF DME, overnight incubation, mean per well (five fields)), 114; in test [1] (setting [7]), 71; in test [1] (100nM test compound, SF DME, overnight incubation), 92; in test [1] (setting [8]), 229; in test [1] (1µM test compound, SF DME, overnight incubation), 46. For the same molecule, the “No. Neurons Alive” value in test [1] (10µM test compound, SF DME, overnight incubation) is reported as 47.

Take Rapamycin-O-benzyl-27-oxime [Example 5]: the “LDH Activity” value in the test with Cortical neurons (setting [2]) was 0.74 mOD/min; in the test on Cortical neurons (setting [3]), 1.65 mOD/min; in the test with Cortical neurons (setting [4]), 4.82 mOD/min; in the test on Cortical neurons (setting [5]), 8.83 mOD/min. Also, the results for the “No. Neurons Alive” value in test [1] (setting [6]), in test [1] (setting [7]) and in test [1] (setting [8]) were 131, 96 and 135, respectively.
